Measured values: patent US4820695A, “C-20-dihydro-deoxy-(cyclic amino)-derivatives of macrolide antibiotics” (priority 1987, dated 1989)
Converted amounts (≈) assume the structure as drawn. Where two headings read alike, the source gives them in different places.

Legend:
[1] = tested on: Staphylococcus aureus V41; test: MIC, standard agar-dilution assay (Table IX); format: cell-based; settings: Staphylococcus aureus V41, Penicillin-resistant strain, read-out: MIC
[2] = tested on: Staphylococcus aureus X400; test: MIC, standard agar-dilution assay (Table IX); format: cell-based; settings: Staphylococcus aureus X400, Methicillin-resistant strain, read-out: MIC
[3] = tested on: Staphylococcus epidermidis EPI1; test: MIC, standard agar-dilution assay (Table IX); format: cell-based; settings: Staphylococcus epidermidis EPI1; agar-dilution; read-out: MIC
[4] = Titratable groups in 66% aqueous DMF (Tables XIV-XVI); format: physicochemical
Text: ^c Run in 66% aqueous DMF
^d Run in 66% aqueous DMF

[5] = tested on: Haemophilus influenzae C.L.; test: MIC, standard agar-dilution assay (Table IX); format: cell-based; settings: Ampicillin-sensitive strain, read-out: MIC
[6] = tested on: Streptococcus Group D 2041; test: MIC, standard agar-dilution assay (Table IX); format: cell-based; settings: GROUPD2041, read-out: MIC
[7] = tested on: Mycoplasma gallisepticum 29C; test: MIC, broth-dilution microtiter test (Table X); format: cell-based; settings: Mycoplasmoides gallisepticum, read-out: MIC
Text: (§1) The MIC's in Table X were obtained using conventional broth-dilution microtiter tests.

[8] = tested on: Pasteurella multocida 60A; test: MIC, broth-dilution microtiter test (Table X); format: cell-based; settings: Avian isolate, read-out: MIC
Text: as §1

[9] = tested on: Pasteurella hemolytica 22C; test: MIC, broth-dilution microtiter test (Table X); format: cell-based; settings: read-out: MIC
Text: as §1

Mycoplasma hyorhinis 29E = test: MIC, broth-dilution microtiter test (Table X); format: cell-based; settings: read-out: MIC
Text: as §1

Mycoplasma synoviae 40A = test: MIC, broth-dilution microtiter test (Table X); format: cell-based; settings: Mycoplasmopsis synoviae, read-out: MIC
Text: as §1

[10] = tested on: Mycoplasma hyopneumoniae S5972; test: MIC, broth-dilution microtiter test (Table X); format: cell-based; settings: Mesomycoplasma hyopneumoniae, read-out: MIC
Text: as §1

[11] = tested on: Pasteurella multocida 17E; test: MIC, broth-dilution microtiter test (Table X); format: cell-based; settings: Bovine isolate, read-out: MIC
Text: as §1

Staphylococcus aureus = test: MIC, broth-dilution microtiter test (Table X); format: cell-based; settings: read-out: MIC
Text: as §1

Streptococcus sp. 19F = test: MIC, broth-dilution microtiter test (Table X); format: cell-based; settings: read-out: MIC
Text: as §1

Escherichia coli EC14 = test: MIC, standard agar-dilution assay (Table IX); format: cell-based; settings: read-out: MIC
[12] = tested on: Streptococcus pneumoniae Park I; test: MIC, standard agar-dilution assay (Table IX); format: cell-based; settings: Streptococcus pneumoniae Park I; agar-dilution; read-out: MIC
Escherichia coli N10 = test: MIC, standard agar-dilution assay (Table IX); format: cell-based; settings: read-out: MIC
Escherichia coli TEM = test: MIC, standard agar-dilution assay (Table IX); format: cell-based; settings: read-out: MIC
[13] = tested on: Streptococcus pyogenes C203; test: ED50 in mice experimentally infected with S. pyogenes C203 (Table XI); format: in vivo; settings: Streptococcus pyogenes, doses given 1 and 4 hours postinfection, read-out: ED50
Procedure: The C-20 modified derivatives of this invention have shown in vivo antimicrobial activity against experimentally-induced infections in laboratory animals. When two doses of test compound were administered to mice experimentally infected with S. pyogenes C203, the activity observed was measured as an ED50 value [effective dose in mg/kg to protect 50% of the test animals: see Warren Wick, et al., J. Bacteriol. 81, 233-235 (1961)].
^a mg/kg × 2; doses given 1 and 4 hours postinfection

[14] = tested on: Streptococcus Group D X66; test: MIC, standard agar-dilution assay (Table IX); format: cell-based; settings: read-out: MIC
Staphyloccus aureus X1.1 = test: MIC, standard agar-dilution assay (Table IX); format: cell-based, Staphylococcus aureus; settings: Staphylococcus aureus, read-out: MIC
[15] = tested on: Staphylococcus epidermidis 222; test: MIC, standard agar-dilution assay (Table IX); format: cell-based; settings: read-out: MIC
Klebsiella X26 = test: MIC, standard agar-dilution assay (Table IX); format: cell-based; settings: read-out: MIC
[16] = tested on: Haemophilus influenzae 76; test: MIC, standard agar-dilution assay (Table IX); format: cell-based; settings: Haemophilus influenzae 76, Ampicillin-resistant strain, read-out: MIC
Pasteurella multocida = test: Pasteurella infection in one-day-old chicks, subcutaneous administration (Table XII); format: in vivo; settings: Administered subcutaneously, 30 mg/kg × 2, 1 and 4 hours post-challenge
Procedure: Many of the C-20 modified derivatives of this invention have also shown in vivo antibacterial activity against infections induced by gram-negative bacteria. Tables XII and XIII summarize the results of tests in which illustrative compounds were evaluated against a Pasteurella infection in one-day-old chicks. The compounds were administered parenterally or orally after challenge of the chicks with Pasteurella multocida (0.1 ml of a 10^-4 dilution of a twenty-hour tryptose broth culture of an avian P. multocida given subcutaneously). In these tests, unless indicated otherwise, all non-medicated infected chicks died within 24 hours of Pasteurella challenge. In the tests summarized in Table XII, the compounds were administered by subcutaneous injection at a dosage of 30 mg/kg, 1 and 4 hours post-challenge of the chicks with P. multocida. In the tests summarized in Table XIII the compounds were administered in medicated drinking water (at a level of 2 g/gal) available from 4 to 20 hours prior to challenge of the chicks with P. multocida and during the 3 -day test period.
^a Administered subcutaneously; 30 mg/kg × 2

[17] = tested on: Staphylococcus aureus S13E; test: MIC, standard agar-dilution assay (Table IX); format: cell-based; settings: Staphylococcus aureus, S13E
[18] = tested on: Streptococcus pyogenes C203; test: MIC, standard agar-dilution assay (Table IX); format: cell-based; settings: read-out: MIC
[19] = 66% aqueous DMF, read-out: Titratable groups
[20] = 66% aqueous DMF, read-out: Titratable groups (first value)

CCC1OC(=O)CC(O)C(C)C(OC2OC(C)C(O)C(N(C)C)C2O)C(CCN2CCCCCCCCCCCC2)CC(C)C(=O)C=CC(C)=CC1COC1OC(C)C(O)C(OC)C1OC (centres unmarked) [Compound D10, 20-DH-DO-20-(azacyclotridecan-1-yl)desmycosin]
MIC [1]: 0.25 µg/mL (≈ 0.266 µM) | MIC [2]: 0.25 µg/mL (≈ 0.266 µM) | MIC [3]: 0.25 µg/mL (≈ 0.266 µM) | pKa ([4]; Titratable groups): 9.5 | pKa ([4]; Titratable groups (first value)): 8 | MIC [5]: 4 µg/mL (≈ 4.26 µM) | MIC [6]: 4 µg/mL (≈ 4.26 µM) | MIC [7]: 0.097 µg/mL (≈ 0.103 µM) | MIC [8]: 3.12 µg/mL (≈ 3.32 µM) | MIC [9]: 1.56 µg/mL (≈ 1.66 µM) | MIC (Mycoplasma hyorhinis 29E): 12.5 µg/mL (≈ 13.3 µM) | MIC (Mycoplasma synoviae 40A): ≤ 0.048 µg/mL | MIC [10]: 0.78 µg/mL (≈ 0.83 µM) | MIC [11]: 1.56 µg/mL (≈ 1.66 µM) | MIC (Staphylococcus aureus): 0.39 µg/mL (≈ 0.415 µM) | MIC (Streptococcus sp. 19F): 0.78 µg/mL (≈ 0.83 µM) | MIC (Escherichia coli EC14): 64 µg/mL (≈ 68.1 µM) | MIC [12]: 0.25 µg/mL (≈ 0.266 µM) | MIC (Escherichia coli N10): 32 µg/mL (≈ 34.1 µM) | MIC (Escherichia coli TEM): 8 µg/mL (≈ 8.52 µM) | ED50 ([13]; C203, Oral): 68 mg/kg | ED50 ([13]; C203, sc, Subcutaneous): < 10 mg/kg | MIC [14]: 4 µg/mL (≈ 4.26 µM) | MIC (Staphyloccus aureus X1.1): 0.25 µg/mL (≈ 0.266 µM) | MIC [15]: 0.12 µg/mL (≈ 0.128 µM) | MIC (Klebsiella X26): 16 µg/mL (≈ 17 µM) | MIC [16]: 8 µg/mL (≈ 8.52 µM) | Number of Deaths/Number Treated (Pasteurella multocida): 10/10 | MIC [17]: 0.25 µg/mL (≈ 0.266 µM)

CCC1OC(=O)CC(O)C(C)C(OC2OC(C)C(O)C(N(C)C)C2O)C(CCN2CC=C(c3ccccc3)CC2)CC(C)C(=O)C=CC(C)=CC1COC1OC(C)C(O)C(OC)C1OC (centres unmarked) [Compound D26, 20-DH-DO-20-(4-phenyl-1,2,3,6-tetrahydropyridin-1-yl)desmycosin]
MIC [1]: 0.5 µg/mL (≈ 0.546 µM) | MIC [2]: 0.5 µg/mL (≈ 0.546 µM) | MIC [3]: 0.5 µg/mL (≈ 0.546 µM) | MIC [5]: 32 µg/mL (≈ 35 µM) | MIC [6]: 2 µg/mL (≈ 2.19 µM) | MIC [7]: ≤ 0.048 µg/mL | MIC [8]: 12.5 µg/mL (≈ 13.7 µM) | MIC [9]: 12.5 µg/mL (≈ 13.7 µM) | MIC (Mycoplasma hyorhinis 29E): 25 µg/mL (≈ 27.3 µM) | MIC (Mycoplasma synoviae 40A): 0.78 µg/mL (≈ 0.852 µM) | MIC [10]: 0.78 µg/mL (≈ 0.852 µM) | MIC [11]: 6.25 µg/mL (≈ 6.83 µM) | MIC (Staphylococcus aureus): 3.12 µg/mL (≈ 3.41 µM) | MIC (Streptococcus sp. 19F): 0.78 µg/mL (≈ 0.852 µM) | MIC (Escherichia coli EC14): 128 µg/mL (≈ 140 µM) | MIC [12]: 0.25 µg/mL (≈ 0.273 µM) | MIC (Escherichia coli N10): 128 µg/mL (≈ 140 µM) | MIC (Escherichia coli TEM): 32 µg/mL (≈ 35 µM) | ED50 ([13]; C203, Oral): 12.5 mg/kg | ED50 ([13]; C203, sc, Subcutaneous): 5.61 mg/kg | MIC [14]: 1 µg/mL (≈ 1.09 µM) | MIC (Staphyloccus aureus X1.1): 0.5 µg/mL (≈ 0.546 µM) | MIC [15]: 0.25 µg/mL (≈ 0.273 µM) | MIC (Klebsiella X26): 64 µg/mL (≈ 69.9 µM) | MIC [16]: 8 µg/mL (≈ 8.74 µM) | Number of Deaths/Number Treated (Pasteurella multocida): 10/10 | MIC [17]: 0.5 µg/mL (≈ 0.546 µM) | MIC [18]: 0.25 µg/mL (≈ 0.273 µM)

CCC1OC(=O)CC(O)C(C)C(OC2OC(C)C(OC3CC(C)(O)C(O)C(C)O3)C(N(C)C)C2O)C(CCN2CCCCCC2)CC(C)C(=O)C=CC(C)=CC1COC1OC(C)C(O)C(O)C1OC (centres unmarked) [Compound M3, 20-DH-DO-20-(hexahydroazepin-1-yl)macrocin]
MIC [1]: 8 µg/mL (≈ 8.12 µM) | MIC [2]: 32 µg/mL (≈ 32.5 µM) | MIC [3]: 8 µg/mL (≈ 8.12 µM) | pKa [4, 19]: 9.4 | pKa [4, 20]: 6.91 | MIC [5]: 128 µg/mL (≈ 130 µM) | MIC [6]: > 128 µg/mL | MIC [7]: 6.25 µg/mL (≈ 6.34 µM) | MIC [8]: > 50 µg/mL | MIC [9]: 50 µg/mL (≈ 50.7 µM) | MIC (Mycoplasma hyorhinis 29E): > 50 µg/mL | MIC (Mycoplasma synoviae 40A): 25 µg/mL (≈ 25.4 µM) | MIC [10]: 12.5 µg/mL (≈ 12.7 µM) | MIC [11]: > 50 µg/mL | MIC (Staphylococcus aureus): 12.5 µg/mL (≈ 12.7 µM) | MIC (Streptococcus sp. 19F): 50 µg/mL (≈ 50.7 µM) | MIC (Escherichia coli EC14): > 128 µg/mL | MIC [12]: 2 µg/mL (≈ 2.03 µM) | MIC (Escherichia coli N10): > 128 µg/mL | MIC (Escherichia coli TEM): > 128 µg/mL | ED50 ([13]; C203, Oral): > 100 mg/kg | ED50 ([13]; C203, sc, Subcutaneous): > 10 mg/kg | MIC [14]: > 128 µg/mL | MIC (Staphyloccus aureus X1.1): 4 µg/mL (≈ 4.06 µM) | MIC [15]: 2 µg/mL (≈ 2.03 µM) | MIC (Klebsiella X26): > 128 µg/mL | MIC [16]: 128 µg/mL (≈ 130 µM) | MIC [17]: 8 µg/mL (≈ 8.12 µM) | MIC [18]: 4 µg/mL (≈ 4.06 µM)

CCC1OC(=O)CC(O)C(C)C(OC2OC(C)C(OC3CC(C)(O)C(O)C(C)O3)C(N(C)C)C2O)C(CCN2CCCCCCC2)CC(C)C(=O)C=CC(C)=CC1COC1OC(C)C(O)C(O)C1OC (centres unmarked) [Compound M4, 20-DH-DO-20-(octahydroazocin-1-yl)macrocin]
MIC [1]: 4 µg/mL (≈ 4 µM) | MIC [2]: 8 µg/mL (≈ 8.01 µM) | MIC [3]: 4 µg/mL (≈ 4 µM) | pKa [4, 19]: 9.25 | pKa [4, 20]: 6.9 | MIC [5]: 128 µg/mL (≈ 128 µM) | MIC [6]: > 128 µg/mL | MIC [7]: 3.12 µg/mL (≈ 3.12 µM) | MIC [8]: > 50 µg/mL | MIC [9]: > 50 µg/mL | MIC (Mycoplasma hyorhinis 29E): > 50 µg/mL | MIC (Mycoplasma synoviae 40A): 6.25 µg/mL (≈ 6.25 µM) | MIC [10]: 6.25 µg/mL (≈ 6.25 µM) | MIC [11]: > 50 µg/mL | MIC (Staphylococcus aureus): 12.5 µg/mL (≈ 12.5 µM) | MIC (Streptococcus sp. 19F): 12.5 µg/mL (≈ 12.5 µM) | MIC (Escherichia coli EC14): > 128 µg/mL | MIC [12]: 32 µg/mL (≈ 32 µM) | MIC (Escherichia coli N10): > 128 µg/mL | MIC (Escherichia coli TEM): > 128 µg/mL | MIC [14]: > 128 µg/mL | MIC (Staphyloccus aureus X1.1): 4 µg/mL (≈ 4 µM) | MIC [15]: 2 µg/mL (≈ 2 µM) | MIC (Klebsiella X26): > 128 µg/mL | MIC [16]: 128 µg/mL (≈ 128 µM) | MIC [17]: 4 µg/mL (≈ 4 µM) | MIC [18]: 2 µg/mL (≈ 2 µM)
